Earlier results, collected in patent EP0919231A1, “Injectable parasiticide composition and process for the preparation” (Biogenesis, S.A., priority 1997, dated 1999).

Assays:
[1] = bovines; for detection of parent drug in plasma: after administering albendazole or phenbendazole, found in the gastrointestinal lumen; for detected in plasma, time postreatment: metabolite after administering albendazole or phenbendazole respectively
[2] = tested on: Trichostrongylus colubriformis; details: strain resistant to benzimidazoles; intravenous compared with oral administration
Haemonchus contortus = details: strain resistant to benzimidazoles; intravenous compared with oral administration

Compound	detection of parent drug in plasma [1]	detected in plasma, time postreatment [1]	effectiveness intravenous versus oral [2]	effectiveness intravenous versus oral (Haemonchus contortus)
CCCSc1ccc2nc(NC(=O)OC)[nH]c2c1 [albendazole]	not detected	–	–	–
COC(=O)Nc1nc2ccc([S+]([O-])c3ccccc3)cc2[nH]1 (stereo not drawn) [oxphendazole, methyl ester of [(5-phenyl-sulphinyl)-1H-benzimidazol-2-il] carbamic acid]	–	≤ 36 h	more effective	more effective
COC(=O)Nc1nc2ccc(Sc3ccccc3)cc2[nH]1 [phenbendazole]	not detected	–	–	–
CCC[S+]([O-])c1ccc2[nH]c(NC(=O)OC)nc2c1 (stereo not drawn) [ricobendazole, methyl ester of [(5-propyl-sulphinyl)-1H-benzimidazol-2-il] carbamic acid]	–	≤ 36 h	–	–
